Source: ChEMBL document CHEMBL1152905, “Identification and characterization of a selective radioligand for melanin-concentrating hormone 1-receptor (MCH1R)” (Bioorg Med Chem Lett, 2009)
Blank lines part the entries; values can stand above or below the compound they belong to. The source made the active and inactive calls. No cut-off for these calls is given here. Bridge positions count the residues as written; N and C are the ends. Peptide text beside a SMILES is read from it. * marks the point of attachment. X2 = NC(=O)CC[C@@H](CN[C@@H](Cc1ccc(O)c(I)c1)C(=O)O)N*; X1 = NC(=O)CC[C@@H](CN[C@@H](Cc1ccc(O)cc1)C(=O)O)N*

What was measured:
[1] = molecular target: T1, Melanin-concentrating hormone receptor 1 (Homo sapiens, UniProt Q99705); test: Displacement of[125I]MCH from human MCH1R expressed in CHO cells; type: cell-based
[2] = molecular target: T1, Melanin-concentrating hormone receptor 1; test: Binding affinity to human MCH1R expressed in CHO cells by scintillation counting per mg of protein; type: cell-based
[3] = Lipophilicity, log D at pH 7.4; type: physicochemical; settings: buffer
[4] = molecular target: T1, Melanin-concentrating hormone receptor 1; test: Displacement of [35S] 4-(1-(3,4-difluorophenyl)-2-(ethyl(3-(6-fluoro-3H-spiro[isobenzofuran-1,4'-piperidine]-1'-yl)propyl)amino)-2-oxoethyl)-3-oxopiperazine-1-sulfonic acid from human MCH1R
[5] = molecular target: Melanin-concentrating hormone receptor 2 (Homo sapiens, UniProt Q969V1); test: Displacement of [35S] 4-(1-(3,4-difluorophenyl)-2-(ethyl(3-(6-fluoro-3H-spiro[isobenzofuran-1,4'-piperidine]-1'-yl)propyl)amino)-2-oxoethyl)-3-oxopiperazine-1-sulfonic acid from human MCH2R
[6] = molecular target: Melanin-concentrating hormone receptor 1 (Mus musculus, UniProt Q8JZL2); test: Displacement of [35S] 4-(1-(3,4-difluorophenyl)-2-(ethyl(3-(6-fluoro-3H-spiro[isobenzofuran-1,4'-piperidine]-1'-yl)propyl)amino)-2-oxoethyl)-3-oxopiperazine-1-sulfonic acid from mouse MCH1R
[7] = molecular target: Melanin-concentrating hormone receptor 1 (Mus musculus) (UniProt Q8JZL2); test: Binding affinity to MCH1R in wild type mouse coronal slice […] at 500 pM by radioactivity study; settings: tested as the 35S-labelled form
Sequence of Melanin-concentrating hormone receptor 1 (Mus musculus) (Q8JZL2 whole entry): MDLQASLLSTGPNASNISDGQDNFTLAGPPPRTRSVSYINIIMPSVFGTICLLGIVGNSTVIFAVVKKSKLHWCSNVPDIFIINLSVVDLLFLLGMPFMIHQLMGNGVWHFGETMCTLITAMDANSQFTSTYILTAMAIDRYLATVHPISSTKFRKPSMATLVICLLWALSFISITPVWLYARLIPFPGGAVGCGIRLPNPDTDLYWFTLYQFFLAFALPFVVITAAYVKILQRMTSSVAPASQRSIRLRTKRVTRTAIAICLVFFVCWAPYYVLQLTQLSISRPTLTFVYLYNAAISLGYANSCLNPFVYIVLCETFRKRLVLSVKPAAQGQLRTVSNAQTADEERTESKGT

T1 sequence (Q99705 whole entry): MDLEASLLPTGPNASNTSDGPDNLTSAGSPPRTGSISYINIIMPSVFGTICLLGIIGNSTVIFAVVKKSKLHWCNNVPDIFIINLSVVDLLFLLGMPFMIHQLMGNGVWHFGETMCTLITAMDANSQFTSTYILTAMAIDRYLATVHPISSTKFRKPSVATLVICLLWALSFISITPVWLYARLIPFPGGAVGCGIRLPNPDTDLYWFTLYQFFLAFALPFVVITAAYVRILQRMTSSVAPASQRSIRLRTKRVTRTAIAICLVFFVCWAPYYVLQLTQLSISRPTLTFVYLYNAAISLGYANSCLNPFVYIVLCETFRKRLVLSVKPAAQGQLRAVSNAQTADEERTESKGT
Sequence of Melanin-concentrating hormone receptor 2 (Q969V1 whole entry): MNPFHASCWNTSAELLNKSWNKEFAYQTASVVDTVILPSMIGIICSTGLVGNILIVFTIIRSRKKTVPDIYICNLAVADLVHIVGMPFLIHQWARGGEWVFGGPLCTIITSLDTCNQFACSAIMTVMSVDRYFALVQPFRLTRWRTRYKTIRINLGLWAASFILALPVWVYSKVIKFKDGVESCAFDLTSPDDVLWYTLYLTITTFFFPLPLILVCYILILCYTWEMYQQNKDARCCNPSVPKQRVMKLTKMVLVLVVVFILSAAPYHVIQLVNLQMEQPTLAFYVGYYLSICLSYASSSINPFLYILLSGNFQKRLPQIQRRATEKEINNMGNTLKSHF
Sequence of Melanin-concentrating hormone receptor 1 (Mus musculus, UniProt Q8JZL2) (Q8JZL2 whole entry): as the sequence (Q8JZL2 whole entry) above

Structure (SMILES): CCN(CCCN1CCC2(CC1)OCc1ccc(F)cc12)C(=O)C(c1ccc(F)c(F)c1)N1CCN(C(=O)OC(C)(C)C)CC1=O (stereo in doubt; 5a)
- IC50 [1]: 0.24 nM

Structure (SMILES): CCN(CCCN1CCC2(CC1)OCc1ccc(F)cc12)C(=O)C(c1ccc(F)c(F)c1)N1CCNCC1=O (centres undefined)
- IC50 [1]: 0.87 nM

Structure (SMILES): CSCC[C@@H]1NC(=O)[C@@H](NC(=O)[C@H](CCCNC(=N)N)NC(=O)[C@H](CC(C)C)NC(=O)[C@H](CCSC)NC(=O)[C@H](CC(=O)O)NC(=O)[C@H](Cc2ccccc2)NC(=O)[C@@H](N)CC(=O)O)CSSC[C@@H](C(=O)N[C@@H](Cc2c[nH]c3ccccc23)C(=O)N[C@@H](CCC(N)=O)CN[C@@H](Cc2ccc(O)c(I)c2)C(=O)O)NC(=O)[C@@H]2CCCN2C(=O)[C@H](CCCNC(=N)N)NC(=O)[C@H](Cc2ccccc2)NC(=O)[C@H](C(C)C)NC(=O)[C@H](CCCNC(=N)N)NC(=O)CNC(=O)[C@H](CC(C)C)NC1=O (H-DFDMLRCMLGRVFRPCW-X2; disulfide 7-16)
- Bmax ([2]; tested as the 125I-labelled form): 24 pmol

Structure (SMILES): CCN(CCCN1CCC2(CC1)OCc1ccc(F)cc12)C(=O)C(c1ccc(F)c(F)c1)N1CCN(C(=O)OC(C)(C)C)CC1=O (stereo in doubt; 5b)
- IC50 [1]: 145 nM

Structure (SMILES): CN(CCCN1CCC2(CC1)OCc1ccccc12)C(=O)C(c1ccc(F)c(F)c1)N1CCCC1=O (centres undefined)
- logD [3]: 2.2
- IC50 [1]: 2.7 nM

- Ki [4]: 0.034 nM
- Ki [5]: 1.6 nM
- Ki [6]: 0.052 nM
Structure (SMILES): CSCC[C@@H]1NC(=O)[C@@H](NC(=O)[C@H](CCCNC(=N)N)NC(=O)[C@H](CC(C)C)NC(=O)[C@H](CCSC)NC(=O)[C@H](CC(=O)O)NC(=O)[C@H](Cc2ccccc2)NC(=O)[C@@H](N)CC(=O)O)CSSC[C@@H](C(=O)N[C@@H](Cc2c[nH]c3ccccc23)C(=O)N[C@@H](CCC(N)=O)CN[C@@H](Cc2ccc(O)cc2)C(=O)O)NC(=O)[C@@H]2CCCN2C(=O)[C@H](CCCNC(=N)N)NC(=O)[C@H](Cc2ccccc2)NC(=O)[C@H](C(C)C)NC(=O)[C@H](CCCNC(=N)N)NC(=O)CNC(=O)[C@H](CC(C)C)NC1=O (H-DFDMLRCMLGRVFRPCW-X1; disulfide 7-16)

Structure (SMILES): CCN(CCCN1CCC2(CC1)OCc1ccc(F)cc12)C(=O)C(c1ccc(F)c(F)c1)N1CCN(S(C)(=O)=O)CC1=O (centres undefined)
- Bmax ([2]; tested as the 35S-labelled form): 23 pmol
- Activity [7]: Active

Structure (SMILES): CCN(CCCN1CCC2(CC1)OCc1ccc(F)cc12)C(=O)C(c1ccc(F)c(F)c1)N1CCCC1=O (centres undefined)
- IC50 [1]: 0.71 nM

Structure (SMILES): CCN(CCCN1CCC2(CC1)OCc1ccc(F)cc12)C(=O)C(c1ccc(F)c(F)c1)N1CCN([35S](C)(=O)=O)CC1=O (centres undefined)
- Ki [5]: > 9700 nM
- Ki [6]: 0.5 nM
